Measurements as given in patent US20160009693A1, “HERBICIDAL COMPOUNDS” (SYNGENTA LIMITED, priority 2013, published 2016).

Legend:
Format in all cases: in vivo
Conditions in all cases: applied at 1000 g/h, evaluated after 13 days
[1] = tested on: Amaranthus retoflexus (AMARE); test: Herbicidal glasshouse test, post-emergence, AMARE
How it was run: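 Amaranthus retoflexus (AMARE) seeds were sown in pots of standard soil and grown in a glasshouse at 24/16° C. day/night, 14 hours light and 65% humidity for 8 days. The plants were then sprayed post-emergence with an aqueous solution of the active ingredient in acetone/water (50:50) with 0.5% Tween 20. Damage was scored after 13 days.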

[2] = tested on: Setaria faberi (SETFA); test: Herbicidal glasshouse test, post-emergence, SETFA
How it was run: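 Setaria faberi seeds were sown in standard soil in pots and grown for 8 days in a glasshouse at 24/16° C. day/night, 14 hours light and 65% humidity. The seedlings were then sprayed post-emergence with the active ingredient in acetone/water (50:50) containing 0.5% Tween 20. Afterwards they were kept under the same conditions, watered twice daily, and scored for percentage damage on a five point scale.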

[3] = tested on: Echinochloa crus-galli (ECHCG); test: Herbicidal glasshouse test, pre-emergence, ECHCG
How it was run: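 Echinochloa crus-galli seeds were sown in standard soil in pots and grown for one day in a glasshouse at 24/16° C. day/night, 14 hours light and 65% humidity. Pre-emergence spraying used an aqueous solution of the active ingredient in acetone/water (50:50) with 0.5% Tween 20. Damage was scored after 13 days on a five point scale.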

[4] = tested on: Ipomoea hederacea (IPOHE); test: Herbicidal glasshouse test, pre-emergence, IPOHE
[5] = tested on: Amaranthus retoflexus (AMARE); test: Herbicidal glasshouse test, pre-emergence, AMARE
How it was run: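 Amaranthus retoflexus seeds were sown in pots of standard soil and kept one day in a glasshouse at 24/16° C. (day/night), 14 hours light and 65% humidity. They were then sprayed pre-emergence with the active ingredient in acetone/water (50:50) containing 0.5% Tween 20. Plants grew under the same conditions, watered twice daily, and percentage damage was scored after 13 days.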

[6] = tested on: Alopecurus myosuroides (ALOMY); test: Herbicidal glasshouse test, pre-emergence, ALOMY
[7] = tested on: Setaria faberi (SETFA); test: Herbicidal glasshouse test, pre-emergence, SETFA
[8] = tested on: Alopecurus myosuroides (ALOMY); test: Herbicidal glasshouse test, post-emergence, ALOMY
[9] = tested on: Echinochloa crus-galli (ECHCG); test: Herbicidal glasshouse test, post-emergence, ECHCG
How it was run: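 Echinochloa crus-galli (ECHCG) seeds were sown in standard soil in pots and grown for 8 days in a glasshouse at 24/16° C. day/night, 14 hours light and 65% humidity. The young plants were then sprayed post-emergence with the active ingredient in acetone / water (50:50) containing 0.5% Tween 20. Damage was scored after 13 days.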

[10] = tested on: Ipomoea hederacea (IPOHE); test: Herbicidal glasshouse test, post-emergence, IPOHE
[11] = tested on: Solanum nigrum (SOLNI); test: Herbicidal glasshouse test, post-emergence, SOLNI
[12] = tested on: Solanum nigrum (SOLNI); test: Herbicidal glasshouse test, pre-emergence, SOLNI
How it was run: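 Seeds of Solanum nigrum were sown in pots of standard soil and kept one day in a glasshouse at 24/16° C. day/night, 14 hours light and 65% humidity. For the pre-emergence treatment they were then sprayed with an aqueous solution of the active ingredient formulated in acetone/water (50:50) containing 0.5% Tween 20. Plant damage was rated after 13 days.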

Row | Compound | POST Application AMARE, percentage damage (five point scale) [1] | POST Application SETFA, percentage damage (five point scale) [2] | PRE Application ECHCG, percentage damage (five point scale) [3] | PRE Application IPOHE, percentage damage (five point scale) [4] | PRE Application AMARE, percentage damage (five point scale) [5] | PRE Application ALOMY, percentage damage (five point scale) [6] | PRE Application SETFA, percentage damage (five point scale) [7] | POST Application ALOMY, percentage damage (five point scale) [8] | POST Application ECHCG, percentage damage (five point scale) [9] | POST Application IPOHE, percentage damage (five point scale) [10] | POST Application SOLNI, percentage damage (five point scale) [11] | PRE Application SOLNI, percentage damage (five point scale) [12]
1 | CCCCn1c(=O)c(C(=O)Nc2nnnn2C)cn(C)c1=O [Compound 4.004] | 5 (5=80-100%) | 1 (1=0-19%) | 1 (1=0-19%) | 2 (2=20-39%) | 5 (5=80-100%) | 1 (1=0-19%) | 1 (1=0-19%) | 1 (1=0-19%) | 1 (1=0-19%) | 4 (4=60-79%) | 5 (5=80-100%) | 2 (2=20-39%)
2 | CCCn1nnnc1NC(=O)c1cn(C)c(=O)n(-c2cccc(F)c2)c1=O [Compound 4.005] | 5 (5=80-100%) | 1 (1=0-19%) | 2 (2=20-39%) | 4 (4=60-79%) | 4 (4=60-79%) | 1 (1=0-19%) | 1 (1=0-19%) | 3 (3=40-59%) | 2 (2=20-39%) | 5 (5=80-100%) | 5 (5=80-100%) | 5 (5=80-100%)
3 | Cn1ncnc1NC(=O)c1nn(C)c(=O)n(-c2ccccc2)c1=O [Compound 5.001] | 5 (5=80-100%) | 5 (5=80-100%) | 1 (1=0-19%) | 4 (4=60-79%) | 5 (5=80-100%) | 1 (1=0-19%) | 1 (1=0-19%) | 5 (5=80-100%) | 5 (5=80-100%) | 5 (5=80-100%) | 5 (5=80-100%) | 5 (5=80-100%)
4 | Cn1ncnc1NC(=O)c1nn(C)c(=O)n(-c2cccc(F)c2F)c1=O [Compound 5.002] | 5 (5=80-100%) | 5 (5=80-100%) | 3 (3=40-59%) | 5 (5=80-100%) | 5 (5=80-100%) | 3 (3=40-59%) | 2 (2=20-39%) | 5 (5=80-100%) | 5 (5=80-100%) | 5 (5=80-100%) | 5 (5=80-100%) | 5 (5=80-100%)
5 | CCCCn1c(=O)c(C(=O)Nc2ncnn2C)nn(C)c1=O [Compound 5.003] | 5 (5=80-100%) | 4 (4=60-79%) | 1 (1=0-19%) | 4 (4=60-79%) | 5 (5=80-100%) | 1 (1=0-19%) | 4 (4=60-79%) | 3 (3=40-59%) | 4 (4=60-79%) | 4 (4=60-79%) | 5 (5=80-100%) | 5 (5=80-100%)
